# Source: patent US6534075B1, “Antimicrobial and antiviral compositions and treatments for food surfaces” (Ecolab Inc., priority 1999, dated 2003)
# Read-outs that look alike come from different tables or passages of the source. Marks after values point to notes of the source that are not given here.
# Columns and labels:
# [1] = system: S. javiana; experiment: Microbial reduction on Roma tomato surfaces, five minute submersion (Table 6); settings: tomatoes submerged five minutes at 72° F., versus untreated control
# Description: Specifically, comparison is made to the use of either sodium hypochlorite (bleach), hydrogen peroxide or peracetic acid.
# Testing was performed on commercial Roma tomato surfaces using the test organism Salmonella javinia. For the pathogenic organisms, a 1:10 dilution of a 10^7 CFU/ml (colony forming units per ml) test system suspension was prepared. Whole tomatoes were placed into a plastic bag, and each bag was inoculated with a 10-mil. test system suspension, resulting in an inoculum level of […]. Bags are gently shaken for even distribution of the test system for five minutes. The produce types are then stored overnight at 4° C. Untreated controls were also prepared. Two-liter volumes of the test solutions were prepared in 4-liter beakers. Solutions were prepared in laboratory tap water to simulate industry conditions. The tomatoes were then exposed to the test solution by submersion for five minutes at 72° F. (about 22° C.). At the end of that time, the tomatoes were removed from the solution and thoroughly rinsed under fresh-running tap water. Fifty grams of the home produce (tomato), plus 100 ml buffered dilution water were placed into a stomacher bag. The tomatoes were massaged for 60 seconds. […] on TGE (Salmonella). Plates were incubated at 35° C. for 48 hours.
# [2] = system: Feline parvovirus; settings: published results against Feline parvovirus, cited from earlier work
# [3] = system: E. coli; experiment: Log reduction of E. coli by liquid compositions, 30 second contact (Tables 4, 5); type: cell-based; settings: for Log Reduction: E. coli; for E. Coli Log Reduction: single component alone, pH 3, 30 second contact time, vs untreated control
# Excerpt: Results recorded include the pH of the solution, the color of the solution and the log reduction in microbe. In Table 4, E. coli is used in all examples, while a variety of organisms (gram positive and gram negative bacteria, a yeast, a mold) are used in Table 5. [table] [table]
# [4] = system: S. aureus; experiment: Log reduction of S. aureus by liquid compositions, 30 second contact (Table 5); type: cell-based; settings: N-source:H2O2:KI 0:300:0 ppm, pH 5, 30 second contact
# Excerpt: (§1) Results recorded include the pH of the solution, the color of the solution and the log reduction in microbe. In Table 4, E. coli is used in all examples, while a variety of organisms (gram positive and gram negative bacteria, a yeast, a mold) are used in Table 5.
# [5] = system: Z. bailii; experiment: Log reduction of Z. bailii by liquid compositions, 30 second contact (Table 5); type: cell-based
# [6] = system: P. expansum; experiment: Log reduction of P. expansum by liquid compositions, 15 minute contact (Table 5); type: cell-based
# Excerpt: as §1
# [7] = system: S. aureus; experiment: Food-preparation hard surface sanitizing comparison, S. aureus (Table 12); type: cell-based; settings: actives conc. 300 ppm
# Excerpt: (§2) Table 12 compares formulas of the present invention with prior art examples of food-preparation hard surface sanitizing. […] [table]
# [8] = system: E. coli ATCC 11229; experiment: Food-preparation hard surface sanitizing comparison, E. coli (Table 12); type: cell-based; settings: actives conc. 300 ppm; 30 second exposure
# Excerpt: as §2
# [9] = system: Total bacterial flora; experiment: Meat carcass treatment, prerigor beef surfaces (Table 7); settings: active antimicrobial 1000 ppm; carcass treated 30 seconds, drained 10 minutes
# Description: Working Example 5 is similar to the previous example in that comparisons are made between the present invention and known commercial compositions for control of microorganisms on food surfaces. In this case, however, comparisons were made for meat carcass treatments.
# Testing was performed on prerigor beef surfaces from a packing house. Total bacterial flora were tested. The carcasses were treated for 30 seconds and drained for 10 minutes. Test samples were isolated and plated for total […].
# [10] = N-source:H2O2:KI 300:0:0 ppm, pH 7, 30 second contact
compound,measurement,setting,value
OCl [sodium hypochlorite],Log Reduction,[1]; active antimicrobial 30 ppm,0.3 log
same,Log Reduction,[1]; active antimicrobial 80 ppm,1.9 log
same,Minimum Concentration (for 10-minute inactivation),[2],"2,000 ppm"
CC(C)O [IPA],Minimum Concentration (for 10-minute inactivation),[2],"500,000 ppm"
Oc1ccccc1-c1ccccc1 [o-phenylphenol G],Minimum Concentration (for 10-minute inactivation),[2],"100,000 ppm"
O=CCCCC=O [Glutaraldehyde],Outcome noted in parentheses at the listed concentration,[2]; 10-minute inactivation,2-log
same,Minimum Concentration (for 10-minute inactivation),[2]; unit not given,"10,000"
"OO [Formula H2O2, hydrogen peroxide]",Log Reduction,"[3]; N-source:H2O2:KI 0:300:0 ppm, pH 5, 30 second contact",0.2 log
same,E. Coli Log Reduction,[3],0.2 log
same,Log Reduction,[4],0.4 log
same,Log Reduction,"[5]; N-source:H2O2:KI 0:532:0 ppm, pH 3, 30 second contact",0.1 log
same,Log Reduction,"[5]; N-source:H2O2:KI 0:532:0 ppm, pH 5, 30 second contact",0.1 log
same,Log Reduction,"[5]; N-source:H2O2:KI 0:532:0 ppm, pH 7, 30 second contact",0.1 log
same,Log Reduction,"[6]; N-source:H2O2:KI 0:532:0 ppm, pH 5, 15 minute contact",0.0* log
same,Log Reduction,[1]; active antimicrobial 80 ppm,<0.1 log
same,Log Reduction S. aureus,[7],0.4 log
same,Log Reduction E. coli,[8],0.2 log
"[I-].[K+] [KI, potassium iodide]",E. Coli Log Reduction,[3],0 log
same,Log Reduction,"[6]; N-source:H2O2:KI 0:0:500 ppm, pH 5, 15 minute contact",0.0* log
lecithin,E. Coli Log Reduction,[3],0 log
C[N+](C)(C)CCO.[Cl-] [choline chloride],Log Reduction,[3]; [10],0.0 log
same,E. Coli Log Reduction,[3],0 log
same,Log Reduction,[5]; [10],0.0 log
CCCCCCCCCCCCCCCC[n+]1ccccc1 [cetyl pyridinium chloride],Log Reduction,[9],0.5 log
CCCCCCCCCC[N+](C)(C)CCCCCCCCCC.[Cl-] [didecyl dimethyl ammonium chloride],Log Reduction,"[5]; N-source:H2O2:KI 20:0:0 ppm, pH 3, 30 second contact",0.1 log
same,Log Reduction,"[6]; N-source:H2O2:KI 100:0:0 ppm, pH 7, 15 minute contact",1.0* log
CC(=O)OO [peracetic acid],Log Reduction,[1]; active antimicrobial 80 ppm,2.8 log
CCO [Ethanol],Minimum Concentration (for 10-minute inactivation),[2],"500,000 ppm"
